Results: PubChem BioAssay AID248 (DTP/NCI, 2004)
Values joined by “and” are separate entries in the source; they are usually repeats but may differ in a detail not shown here. Equal values may be shown once. Inconclusive results and toxic doses are left out. Rule as the data show it: active = T/C of 150% or more; inactive = T/C below 125%.

Tested on: L1210 leukemia ip in BDF1 mice, survival T/C
Assay: NCI In Vivo Anticancer Drug Screen. Data for tumor model L1210 Leukemia (intraperitoneal) in B6D2F1 (BDF1) mice
Conditions: endpoint: mean survival time, higher = longer survival
Method in brief: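 In this screen, tumor-bearing mice given compound are compared to those given vehicle, and their survival values are reported as a treated-to-control quotient.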

[1] = dose: 100.0 mg/kg/injection, schedule: Q01DX009 (ip), vehicle: Klucel (hydroxypropylcellulose) (HPC)
[2] = dose: 200.0 mg/kg/injection, schedule: Q01DX009 (ip), vehicle: Klucel (hydroxypropylcellulose) (HPC)
[3] = dose: 50.0 mg/kg/injection, schedule: Q01DX009 (ip), vehicle: saline with Tween-80
[4] = dose: 100.0 mg/kg/injection, schedule: Q01DX009 (ip), vehicle: saline with Tween-80
[5] = dose: 200.0 mg/kg/injection, schedule: Q01DX009 (ip), vehicle: saline with Tween-80
[6] = dose: 400.0 mg/kg/injection, schedule: Q01DX009 (ip), vehicle: Klucel (hydroxypropylcellulose) (HPC)
[7] = dose: 25.0 mg/kg/injection, schedule: Q04DX003 (ip), vehicle: saline with Tween-80
[8] = dose: 100.0 mg/kg/injection, schedule: Q04DX003 (ip), vehicle: saline with Tween-80
[9] = dose: 200.0 mg/kg/injection, schedule: Q04DX003 (ip), vehicle: saline with Tween-80
[10] = dose: 400.0 mg/kg/injection, schedule: Q04DX003 (ip), vehicle: saline with Tween-80
[11] = dose: 100.0 mg/kg/injection, schedule: Q01DX001 (ip), vehicle: saline with Tween-80
[12] = dose: 200.0 mg/kg/injection, schedule: Q01DX001 (ip), vehicle: saline with Tween-80
[13] = dose: 400.0 mg/kg/injection, schedule: Q01DX001 (ip), vehicle: saline with Tween-80
[14] = dose: 50.0 mg/kg/injection, schedule: Q04DX003 (ip), vehicle: saline with Tween-80

Measured: T/C

CCCCCCCCCC(=O)N/N=C/c1ccncc1
inactive: [1] 89 % of control | [2] 103 % of control

CNS(=O)(=O)c1ccccc1C=C(c1ccccc1)c1ccccc1
inactive: dose: 100.0 mg/kg/injection, schedule: Q01DX001 (ip), vehicle: steriod suspending solution 92 % of control | dose: 200.0 mg/kg/injection, schedule: Q01DX001 (ip), vehicle: steriod suspending solution 114 % of control | dose: 400.0 mg/kg/injection, schedule: Q01DX001 (ip), vehicle: steriod suspending solution 102 % of control

COc1ccc(OC)c2c1C=CCC=C2
inactive: [3] 95 % of control | [4] 88 % of control | dose: 100.0 mg/kg/injection, schedule: Q04DX003 (ip), vehicle: acetone 117 % of control | [5] 102 % of control | dose: 200.0 mg/kg/injection, schedule: Q04DX003 (ip), vehicle: acetone 94 % of control

CCN(C(=O)Nc1ccc(OC)cc1)c1ccccc1C
inactive: dose: 100.0 mg/kg/injection, schedule: Q04DX003 (ip), vehicle: Klucel (hydroxypropylcellulose) (HPC) 99 % of control | [2] 96 % of control | dose: 200.0 mg/kg/injection, schedule: Q04DX003 (ip), vehicle: Klucel (hydroxypropylcellulose) (HPC) 96 % of control | [6] 102 % of control | dose: 400.0 mg/kg/injection, schedule: Q04DX003 (ip), vehicle: Klucel (hydroxypropylcellulose) (HPC) 96 % of control

CCN(CC)C(=S)Nc1ccc([N+](=O)[O-])cc1
inactive: [1] 104 % of control | [2] 86 % of control | [6] 100 % of control

O=C(O)Cc1nc2ccccc2n1CC(=O)O
inactive: dose: 100.0 mg/kg/injection, schedule: Q04DX002 (ip), vehicle: Klucel (hydroxypropylcellulose) (HPC) 96 % of control | dose: 200.0 mg/kg/injection, schedule: Q04DX002 (ip), vehicle: Klucel (hydroxypropylcellulose) (HPC) 93 % of control | dose: 400.0 mg/kg/injection, schedule: Q04DX002 (ip), vehicle: Klucel (hydroxypropylcellulose) (HPC) 100 % of control

O=[N+]([O-])c1ccc(Br)o1
inactive: dose: 6.25 mg/kg/injection, schedule: Q04DX003 (ip), vehicle: saline with Tween-80 110 % of control | dose: 12.5 mg/kg/injection, schedule: Q04DX003 (ip), vehicle: saline with Tween-80 101 % of control | [7] 105 % of control

O=C(CNC(=O)OCc1ccccc1)NC(Cc1c[nH]c2ccccc12)C(=O)OCc1ccccc1 (stereo not given)
inactive: [8] 96 % of control | [9] 100 % of control | [10] 95 % of control

CS(=O)(=O)OCCNc1ccc([N+](=O)[O-])cc1
inactive: dose: 1.0 mg/kg/injection, schedule: Q01DX001 (ip), vehicle: saline 101 % of control | dose: 2.0 mg/kg/injection, schedule: Q01DX001 (ip), vehicle: saline 101 % of control | dose: 4.0 mg/kg/injection, schedule: Q01DX001 (ip), vehicle: saline 98 % of control | dose: 8.0 mg/kg/injection, schedule: Q01DX001 (ip), vehicle: saline 104 % of control | dose: 38.0 mg/kg/injection, schedule: Q01DX015 (ip), vehicle: saline 98 % of control | dose: 57.0 mg/kg/injection, schedule: Q01DX015 (ip), vehicle: saline 95 % of control | dose: 85.0 mg/kg/injection, schedule: Q01DX015 (ip), vehicle: saline 93 % of control

CNC1=CC(=O)C1(F)F
inactive: dose: 12.5 mg/kg/injection, schedule: Q01DX001 (ip), vehicle: Klucel (hydroxypropylcellulose) (HPC) 101 % of control | dose: 25.0 mg/kg/injection, schedule: Q01DX001 (ip), vehicle: Klucel (hydroxypropylcellulose) (HPC) 108 % of control | dose: 50.0 mg/kg/injection, schedule: Q01DX001 (ip), vehicle: Klucel (hydroxypropylcellulose) (HPC) 108 % of control

C/C=C(\C)C(=O)O
inactive: dose: 222.0 mg/kg/injection, schedule: Q01DX Z (ip), vehicle: saline 90 % of control

CC1C2C(=O)C3(C(C)C(=O)O)CCC2(C)C3CC12OCCO2 (stereo not given)
inactive: dose: 100.0 mg/kg/injection, schedule: Q01DX001 (ip), vehicle: Klucel (hydroxypropylcellulose) (HPC) 95 % of control | dose: 200.0 mg/kg/injection, schedule: Q01DX001 (ip), vehicle: Klucel (hydroxypropylcellulose) (HPC) 108 % of control | dose: 400.0 mg/kg/injection, schedule: Q01DX001 (ip), vehicle: Klucel (hydroxypropylcellulose) (HPC) 97 % of control

CC([NH-])CO.CC([NH-])CO.[Cu+2] (stereo not given)
inactive: dose: 12.5 mg/kg/injection, schedule: Q01DX001 (ip), vehicle: saline 97 % of control | dose: 25.0 mg/kg/injection, schedule: Q01DX001 (ip), vehicle: saline 108 % of control

COc1ccc(Cl)cc1NC(=O)Oc1ccc2ccccc2c1
inactive: [11] 89 % of control | [4] 98 % of control and 100 % of control | [8] 91 % of control | [12] 100 % of control | [5] 98 % of control and 92 % of control | [9] 96 % of control | [13] 96 % of control | dose: 400.0 mg/kg/injection, schedule: Q01DX009 (ip), vehicle: saline with Tween-80 100 % of control and 91 % of control | [10] 103 % of control

NC(=O)C1C(=O)OC2CCCCC21 (stereo not given)
inactive: dose: 100.0 mg/kg/injection, schedule: Q01DX001 (ip), vehicle: saline 92 % of control | dose: 200.0 mg/kg/injection, schedule: Q01DX001 (ip), vehicle: saline 87 % of control | dose: 400.0 mg/kg/injection, schedule: Q01DX001 (ip), vehicle: saline 97 % of control

CC(=O)OC1CCC(C)(C2CCC3(C)C(C(C)CCCC(C)C)CCC3C2CC(=O)O)C(=O)C1 (stereo not given)
inactive: [8] 87 % of control | [5] 97 % of control | [9] 91 % of control | [10] 91 % of control

CCCC[As](=O)(O)CCO
inactive: [7] 102 % of control | [14] 94 % of control

CCN(CC)N=Nc1ccc(S(=O)(=O)N(C)C)cc1
inactive: dose: 100.0 mg/kg/injection, schedule: Q04DX002 (ip), vehicle: saline with Tween-80 104 % of control | dose: 200.0 mg/kg/injection, schedule: Q04DX002 (ip), vehicle: saline with Tween-80 97 % of control | dose: 400.0 mg/kg/injection, schedule: Q04DX002 (ip), vehicle: saline with Tween-80 115 % of control

C[n+]1cccc(C(=O)N/N=C/CCc2ccccc2)c1
inactive: [7] 95 % of control | dose: 50.0 mg/kg/injection, schedule: Q01DX001 (ip), vehicle: saline with Tween-80 101 % of control | [3] 120 % of control | [14] 90 % of control | [11] 103 % of control | [4] 106 % of control | [8] 92 % of control | [12] 97 % of control | [5] 95 % of control | [9] 94 % of control | [13] 101 % of control

CCOC(=O)CSc1c([N+](=O)[O-])c(C)nn1C
inactive: dose: 25.0 mg/kg/injection, schedule: Q01DX009 (ip), vehicle: water 101 % of control | dose: 50.0 mg/kg/injection, schedule: Q01DX009 (ip), vehicle: water 97 % of control | dose: 100.0 mg/kg/injection, schedule: Q01DX009 (ip), vehicle: water 105 % of control | dose: 200.0 mg/kg/injection, schedule: Q01DX009 (ip), vehicle: water 97 % of control | dose: 400.0 mg/kg/injection, schedule: Q01DX009 (ip), vehicle: water 92 % of control
